Key:
STAT6 [1] = target: T1, STAT6 (Homo sapiens (Human), UniProt P42226); assay: Surface plasmon resonance assay; assay type: binding; details: truncated human STAT6 aa122-658, 25° C.; read-out: STAT6 SPR Kd
Description: Surface Plasmon Resonance Assay
SPR was used to confirm and quantify binding of compounds to human STAT6. Biacore instruments from the 8K-series (Cytiva) were used, and measurements were performed at 25° C. Human STAT6 (truncated, aa122-658, with N-terminal His-tag, expressed in insect cells) was immobilized in the active flow cells on a CM5 chip using amine-coupling (default settings) at 10 μg/ml in 10 mM acetate buffer pH 5.5, at a contact time of 120-420 sec. and a flow rate of 10 μl/min. Reference flow cells were deactivated using blank immobilization. PBS-P+(Cytiva) supplemented with 2% DMSO was used as running buffer, and solvent correction was applied. Compounds were tested by multi-cycle kinetics injections using a contact time of 60 sec., dissociation time of up to 300 sec., and a flow rate of 30 μl/min.
Solvent-corrected, reference-subtracted and blank-corrected data was processed and binding isotherms were fitted according to a single report point from each sensorgram (Standard: Late binding (5 sec. before injection end); alternative: Earlier report point according to binding profile). Data fitting was done both with unfixed Rmax and with Rmax fixed to the theoretical value* assuming 1:1 binding to allow processing of data from both weak and strong binders as well as to evaluate binding stoichiometry.
Positive controls were run at the beginning, during, and at the end of the screen to evaluate surface activity. Generally surface activity was only affected to a minor degree, and no corrections were applied. • Equation for calculation of the theoretical Rmax (Theoretical Rmax=(MW Analyte/MW Ligand)×immobilization level).
The sensorgrams for Examples 3e5, 3t4, and 3p1 are shown in FIG. 1 (where RU is plotted vs. time in seconds; dotted lines/points were excluded from the analysis due to effects from non-specific binding)).
Target sequence in this assay (P42226 122-658): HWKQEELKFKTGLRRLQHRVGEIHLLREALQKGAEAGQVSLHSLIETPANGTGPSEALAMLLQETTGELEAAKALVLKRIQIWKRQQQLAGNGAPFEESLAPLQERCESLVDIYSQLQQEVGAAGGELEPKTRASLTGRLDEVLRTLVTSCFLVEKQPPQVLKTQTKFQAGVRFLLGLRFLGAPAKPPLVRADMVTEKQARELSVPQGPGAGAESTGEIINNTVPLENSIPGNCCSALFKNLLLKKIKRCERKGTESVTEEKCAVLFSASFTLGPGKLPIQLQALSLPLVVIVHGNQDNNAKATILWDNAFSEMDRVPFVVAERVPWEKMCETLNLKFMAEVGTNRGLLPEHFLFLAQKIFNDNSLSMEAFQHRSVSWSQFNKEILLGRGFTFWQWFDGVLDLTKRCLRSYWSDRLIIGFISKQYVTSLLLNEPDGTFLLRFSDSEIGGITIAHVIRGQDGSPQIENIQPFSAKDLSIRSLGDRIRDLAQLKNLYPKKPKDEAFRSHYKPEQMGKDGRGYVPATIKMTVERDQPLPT

STAT6 [2] = target: T1, STAT6; assay: STAT6 degrader assay (HiBiT, HeLa LgBiT clone 4.14); assay type: cell-based; details: HeLa LgBiT clone 4.14, 4-24 h; geometric mean; given for compounds with >80% Emax; read-out: STAT6 degradation DC50
Method in brief: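 HeLa LgBiT clone 4.14 cells with HiBiT knocked into endogenous STAT6 were treated with compound for 4-24 h at 37° C. Luminescence after Nano-GLO substrate (0.5 h) measured remaining STAT6; 50 μM terfenadine wells defined 100% degradation, and DC50 (nM) was derived.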
Target sequence in this assay (P42226 whole entry, the tested form may be a part): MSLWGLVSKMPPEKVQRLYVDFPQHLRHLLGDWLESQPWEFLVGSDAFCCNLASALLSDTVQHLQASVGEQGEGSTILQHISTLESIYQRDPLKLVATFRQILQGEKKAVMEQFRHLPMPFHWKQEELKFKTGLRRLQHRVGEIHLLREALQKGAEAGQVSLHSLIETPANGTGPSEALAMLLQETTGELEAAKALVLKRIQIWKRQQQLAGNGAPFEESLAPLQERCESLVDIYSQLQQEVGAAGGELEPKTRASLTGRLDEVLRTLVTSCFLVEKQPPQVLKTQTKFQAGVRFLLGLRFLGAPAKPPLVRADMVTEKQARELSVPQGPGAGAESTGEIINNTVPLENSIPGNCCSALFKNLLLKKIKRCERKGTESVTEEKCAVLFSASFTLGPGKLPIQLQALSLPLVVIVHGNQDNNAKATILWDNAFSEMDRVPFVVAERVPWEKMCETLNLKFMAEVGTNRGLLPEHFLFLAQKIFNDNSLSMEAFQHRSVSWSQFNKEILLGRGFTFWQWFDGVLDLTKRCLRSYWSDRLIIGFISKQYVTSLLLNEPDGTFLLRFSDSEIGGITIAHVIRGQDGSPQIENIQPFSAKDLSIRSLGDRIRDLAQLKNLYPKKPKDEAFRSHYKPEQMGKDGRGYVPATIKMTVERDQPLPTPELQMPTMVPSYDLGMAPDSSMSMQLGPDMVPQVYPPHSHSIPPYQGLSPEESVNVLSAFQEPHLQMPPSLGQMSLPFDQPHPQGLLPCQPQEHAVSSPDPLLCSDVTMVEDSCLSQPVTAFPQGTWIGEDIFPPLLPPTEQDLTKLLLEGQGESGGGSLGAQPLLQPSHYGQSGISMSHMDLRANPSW

eotaxin-3 release = assay: Human whole blood eotaxin-3 assay (IL-4 stimulated); assay type: cell-based; details: human whole blood, IL-4 0.4 nM, 48 hours; geometric mean; given for compounds with >80% Emax; read-out: Eotaxin-3 EC50
Method in brief: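 Human whole blood was preincubated with compound for 120 min at 37 °C, then stimulated with recombinant human IL-4 (E. coli) at 0.4 nM final for 48 h. Inhibition of eotaxin-3 release gave EC50 values.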

Structure (SMILES) | Kd (STAT6 [1]) [nM] | DC50 (STAT6 [2]) [nM] | EC50 (eotaxin-3 release) [nM]
Cn1c(CN2CCC(c3ccc(C(=O)N4CCC(CN5CCN(Cc6ccc7c(c6)n(C6CC6)c(=O)n7C6CCC(=O)NC6=O)CC5)CC4)cc3)CC2)cc2c(-c3ccc(N)nc3)ccnc21 (stereo not shown) [Example 3e5, 3-(5-((4-((1-(4-(1-((4-(6-aminopyridin-3-yl)-1-methyl-1H-pyrrolo[2,3-b]pyridin-2-yl)methyl)piperidin-4-yl)benzoyl)piperidin-4-yl)methyl)piperazin-1-yl)methyl)-3-cyclopropyl-2-oxo-2,3-dihydro-1H-benzo[d]imidazol-1-yl)piperidine-2,6-dione] | 104 | 5.4 | –
CN(C(=O)c1ccc(C2CCN(Cc3cc4c(-c5ccc(N)nc5)ccnc4n3C)CC2)cc1)c1ccc(C2CCN(Cc3ccc4c(c3)n(C)c(=O)n4C3CCC(=O)NC3=O)CC2)cc1 (stereo not shown) [Example 3p1, 4-(1-((4-(6-aminopyridin-3-yl)-1-methyl-1H-pyrrolo[2,3-b]pyridin-2-yl)methyl)piperidin-4-yl)-N-(4-(1-((1-(2,6-dioxopiperidin-3-yl)-3-methyl-2-oxo-2,3-dihydro-1H-benzo[d]imidazol-5-yl)methyl)-piperidin-4-yl)phenyl)-N-methylbenzamide] | 11.4 | 0.1 | 1
Cn1c(CN2CCC(c3ccc(-c4nnc5ccc(N6CCC(CN7CCN(Cc8ccc9c(c8)n(C)c(=O)n9C8CCC(=O)NC8=O)CC7)CC6)nn45)cc3)CC2)cc2c(-c3ccc(N)nc3)ccnc21 (stereo not shown) [Example 3t4, 3-(5-((4-((1-(3-(4-(1-((4-(6-aminopyridin-3-yl)-1-methyl-1H-pyrrolo[2,3-b]pyridin-2-yl)methyl)-piperidin-4-yl)phenyl)-[1,2,4]triazolo[4,3-b]pyridazin-6-yl)piperidin-4-yl)methyl)piperazin-1-yl)methyl)-3-methyl-2-oxo-2,3-dihydro-1H-benzo[d]imidazol-1-yl)piperidine-2,6-dione] | 37.8 | 0.1 | –

Source: US20250325677A1, “STAT6 DEGRADERS” (Gilead Sciences, Inc., priority 2024, published 2025)
